Assay results published in patent US10046150B2, “Lysine delivery systems for blood coagulation” (Park City Bio, LLC, priority 2013, dated 2018).

Test system: nose bleed
Test: treatment of a nose bleed with a nose plug (tissue, gauze or absorbent body) carrying lysine powder
Format: in vivo
Method: As a control, regular tissue and regular gauze were used to treat a nose bleed by rolling or otherwise fashioning a nose plug from the materials, and no lysine was added. The tissues and gauze appear to absorb the blood, but the blood continues to flow. In some instances, the blood flow can be significant and require a large number of sequential tissues or gauze. Nose bleeds treated with tissues can last 10 minutes or more up to an hour or longer when the bleed is significant. In some instances a nose bleed can be from both nostrils and both nostrils have to be plugged with a nose plug.
The nose bleed often stops within 1 minute when the tissue includes lysine, compared a long period when only tissues are used. A significant bleed was stopped within 5 minutes when lysine was included in the gauze. […] Available lysine was present after the nose bleed was treated to stop blood flow. […] Accordingly, substantially less than 500 mg lysine (E.g., 5 mg) is needed to stop bleeding in a short time. The device including the tissue and the lysine powder is able to be withdrawn with the blood no longer flowing through the nose.
Additionally, there was still excess powder. The gauze was rolled up with the lysine powder at one end, and the lysine powder was inserted into the nose, then the gauze was released and allowed to expand and plug the nose.
FIG. 12—illustrate an embodiment of a method of making a blood coagulating device with a lysine reservoir. […] The gauze is not hemostatic (Walgreens Premium Rolled Gauze—for secure dressings and light absorption. The device is made by: forming an absorptive body to a size and shape of a sheet; placing lysine powder on a surface of the sheet, where the lysine may be anywhere, but shown to be placed along a center crease. Adhesive is used to stick the surface to itself when the substrate is folded at the center crease so that the folded body has the lysine at the fold. The additional adhesive is put on the surface that is showing, and the sheet is rolled into a cylindrical device. The device has the lysine in a multi-layered chamber with the lysine located at one end. […] The marked end of the controls is not inserted in the nose.

NCCCC[C@H](N)C(=O)O [lysine]
time until the nose bleed stopped (hemostat gauze (regenerated etherized and oxidized natural fiber cellulose) having about 250 mg lysine powder, slower bleed): within a minute
time until the gauze could be removed (hemostat gauze having about 250 mg lysine powder, slower bleed): just over a minute
effect on blood flow / bleeding (in words) (nose bleed): promotes clotting
blood absorbed by the device (in words) (nose bleed, compared with control without lysine where stated): didn't absorb much blood
